US20220323455A1, “FUSED HETEROCYCLIC DERIVATIVES AS ANTIVIRAL AGENTS” (priority 2019, published 2022)

These molecules were tested on HBV (assay: HBV replication inhibition assay (BDNA assay) in HepG2.2.15 cells). Details: 6 days, encapsidated HBV DNA in supernatant.
Assay type: cell-based, Hepatitis B virus
Method: HBV replication inhibition by the disclosed compounds were determined in cells infected or transfected with HBV or cells with stably integrated HBV, such as HepG2.2.15 cells (Sells et al. 1987). In this example, HepG2.2.15 cells were maintained in cell culture medium containing 10% fetal bovine serum (FBS), Geneticin, L-glutamine, penicillin and streptomycin. HepG2.2.15 cells were seeded in 96-well plates at a density of 40,000 cells/well and were treated with serially diluted compounds at a final DMSO concentration of 0.5% either alone or in combination by adding drugs in a checker box format. Cells were incubated with compounds for three days, after which medium was removed and fresh medium containing compounds was added to cells and incubated for another three days. At day 6, supernatant was removed and treated with DNase at 37° C. for 60 minutes, followed by enzyme inactivation at 75° C. for 15 minutes. Encapsidated HBV DNA was released from the virions and covalently linked HBV polymerase by incubating in lysis buffer (Affymetrix QS0010) containing 2.5 μg proteinase K at 50° C. for 40 minutes. HBV DNA was denatured by addition of 0.2 M NaOH and detected using a branched DNA (BDNA) QuantiGene assay kit according to manufacturer recommendation (Affymetrix). HBV DNA levels were also quantified using qPCR, based on amplification of encapsidated HBV DNA extraction with QuickExtraction Solution (Epicentre Biotechnologies) and amplification of HBV DNA using HBV specific PCR probes that can hybridize to HBV DNA and a fluorescently labeled probe for quantitation. In addition, cell viability of HepG2.2.15 cells incubated with test compounds alone or in combination was determined by using CellTitre-Glo reagent according to the manufacturer protocol (Promega). The mean background signal from wells containing only culture medium was subtracted from all other samples, and percent inhibition at each compound concentration was calculated by normalizing to signals from HepG2.2.15 cells treated with 0.5% DMSO using equation E1.
% inhibition(DMSOave−Xi)DMSOave×100% E1:
where DMSOave is the mean signal calculated from the wells that were treated with DMSO control (0% inhibition control) and Xi is the signal measured from the individual wells. EC50 values, effective concentrations that achieved 50% inhibitory effect, were determined by non-linear fitting using Graphpad Prism software (San Diego, Calif.) and equation E2.
Y=Ymin+(Ymax−Ymin)/(1+10(Log EC50−X)×HillSlope) E2:
where Y represents percent inhibition values and X represents the logarithm of compound concentrations.
Selected disclosed compounds were assayed in the HBV replication assay (BDNA assay), as described above, and a representative group of these active compounds is shown in Table 5.

| Compound | EC50 [nM] |
| --- | --- |
| N#CCC1(O)CCC(F)(F)c2c3c(nn2C1)CCN(C(=O)Nc1ccnc(C(F)F)c1F)C3 (single isomer, unassigned) [Example 42, (R*)-8-(Cyanomethyl)-N-(2-(difluoromethyl)-3-fluoropyridin-4-yl)-11,11-difluoro-8-hydroxy-3,4,89,10,11-hexahydro-1H-pyrido[4′,3′:3,4]pyrazolo[1,5-a]azepine-2(7H)-carboxamide] | 163 |
| N#CCC1(O)CCC(F)(F)c2c3c(nn2C1)CCN(C(=O)Nc1ccnc(Br)c1F)C3 (single isomer, unassigned) [Example 43, (S*)—N-(2-Bromo-3-fluoropyridin-4-yl)-8-(cyanomethyl)-11,11-difluoro-8-hydroxy-34,89,10,11-hexahydro-1H-pyrido[4′,3′:3,4]pyrazolo[1,5-a]azepine-2(7H)-carboxamide] | 282 |
| N#CCC1(O)CCC(F)(F)c2c3c(nn2C1)CCN(C(=O)Nc1ccnc(C(F)F)c1F)C3 (single isomer, unassigned) [Example 44, (S*)-8-(Cyanomethyl)-N-(2-(difluoromethyl)-3-fluoropyridin-4-yl)-11,11-difluoro-8-hydroxy-3,4,8,9,10,11-hexahydro-1H-pyrido[4′,3′:3,4]pyrazolo[1,5-a]azepine-2(7H)-carboxamide] | 333 |
| O=C(Nc1ccnc(Br)c1F)N1CCc2nn3c(c2C1)C(F)(F)CCC(F)(CO)C3 (single isomer, unassigned) [Example 47, (S*)—N-(2-Bromo-3-fluoropyridin-4-yl)-8,11,11-trifluoro-8-(hydroxymethyl)-3,4,8,9,10,11-hexahydro-1H-pyrido[4′,3′:3,4]pyrazolo[1,5-a]azepine-2(7H)-carboxamide] | 156 |
| O=C(Nc1ccnc(Br)c1F)N1CCc2nn3c(c2C1)C(F)(F)CCC(F)(CO)C3 (single isomer, unassigned) [Example 48, (R*)—N-(2-Bromo-3-fluoropyridin-4-yl)-8,11,11-trifluoro-8-(hydroxymethyl)-3,4,8,9,10,11-hexahydro-1H-pyrido[4′,3′:3,4]pyrazolo[1,5-a]azepine-2(7H)-carboxamide] | 11 |
| C=CC1(O)CCC(F)(F)c2c3c(nn2C1)CCN(C(=O)Nc1ccc(F)c(C#N)c1)C3 (single isomer, unassigned) [Example 57, (S*)—N-(3-Cyano-4-fluorophenyl)-11,11-difluoro-8-hydroxy-8-vinyl-3,4,8,9,10,11-hexahydro-1H-pyrido[4′,3′:3,4]pyrazolo[1,5-a]azepine-2(7H)-carboxamide] | 9 |
| C#CC1(O)CCC(F)(F)c2c3c(nn2C1)CCN(C(=O)Nc1ccc(F)c(C#N)c1)C3 (single isomer, unassigned) [Example 59, (R*)—N-(3-Cyano-4-fluorophenyl)-8-ethynyl-11,11-difluoro-8-hydroxy-3,4,8,9,10,11-hexahydro-1H-pyrido[4′,3′:3,4]pyrazolo[1,5-a]azepine-2(7H)-carboxamide] | 5 |
| C#CC1(O)CCC(F)(F)c2c3c(nn2C1)CCN(C(=O)Nc1ccc(F)c(C#N)c1)C3 (single isomer, unassigned) [Example 60, (S*)—N-(3-Cyano-4-fluorophenyl)-8-ethynyl-11,11-difluoro-8-hydroxy-3,4,8,9,10,11-hexahydro-1H-pyrido[4′,3′:3,4]pyrazolo[1,5-a]azepine-2(7H)-carboxamide] | 17 |
| CCC1(O)CCC(F)(F)c2c3c(nn2C1)CCN(C(=O)Nc1ccc(F)c(C#N)c1)C3 (single isomer, unassigned) [Example 62, (R*)—N-(3-Cyano-4-fluorophenyl)-8-ethyl-11,11-difluoro-8-hydroxy-3,4,8,9,10,11-hexahydro-1H-pyrido[4′,3′:3,4]pyrazolo[1,5-a]azepine-2(7H)-carboxamide] | 42 |
| C#CC1(O)CCC(F)(F)c2c3c(nn2C1)CCN(C(=O)Nc1ccnc(Br)c1F)C3 (single isomer, unassigned) [Example 65, (S*)—N-(2-Bromo-3-fluoropyridin-4-yl)-8-ethynyl-11,11-difluoro-8-hydroxy-3,4,8,9,10,11-hexahydro-1H-pyrido[4′,3′:3,4]pyrazolo[1,5-a]azepine-2(7H)-carboxamide] | 144 |
| C#CC1(O)CCC(F)(F)c2c3c(nn2C1)CCN(C(=O)Nc1ccnc(C(F)F)c1F)C3 (single isomer, unassigned) [Example 66, (S*)—N-(2-(Difluoromethyl)-3-fluoropyridin-4-yl)-8-ethynyl-11,11-difluoro-8-hydroxy-3,4,8,9,10,11-hexahydro-1H-pyrido[4′,3′:3,4]pyrazolo[1,5-a]azepine-2(7H)-carboxamide] | 149 |
| C[C@@H]1Cc2nn3c(c2CN1C(=O)Nc1ccc(F)c(C(F)(F)F)c1)C(F)(F)CCC(CO)C3 (single isomer, unassigned) [Example 76, (3R,8S*)-11,11-Difluoro-N-(4-fluoro-3-(trifluoromethyl)phenyl)-8-(hydroxymethyl)-3-methyl-3,4,8,9,10,11-hexahydro-1H-pyrido[4′,3′:3,4]pyrazolo[1,5-a]azepine-2(7H)-carboxamide] | 5 |
| C[C@@H]1Cc2nn3c(c2CN1C(=O)Nc1ccnc(Br)c1F)C(F)(F)CCC(CO)C3 (single isomer, unassigned) [Example 77, (3R,8S*)—N-(2-Bromo-3-fluoropyridin-4-yl)-11,11-difluoro-8-(hydroxymethyl)-3-methyl-3,4,8,9,10,11-hexahydro-1H-pyrido[4′,3′:3,4]pyrazolo[1,5-a]azepine-2(7H)-carboxamide] | 14 |
| C[C@@H]1Cc2nn3c(c2CN1C(=O)Nc1ccnc(C(F)F)c1F)C(F)(F)CCC(CO)C3 (single isomer, unassigned) [Example 78, (3R,8S*)—N-(2-(Difluoromethyl)-3-fluoropyridin-4-yl)-11,11-difluoro-8-(hydroxymethyl)-3-methyl-3,4,8,9,10,11-hexahydro-1H-pyrido[4′,3′:3,4]pyrazolo[1,5-a]azepine-2(7H)-carboxamide] | 30 |
| C[C@@H]1Cc2nn3c(c2CN1C(=O)Nc1ccc(F)c(C(F)(F)F)c1)C(F)(F)CCC(CO)C3 (single isomer, unassigned) [Example 80, (3R,8R*)-11,11-Difluoro-N-(4-fluoro-3-(trifluoromethyl)phenyl)-8-(hydroxymethyl)-3-methyl-3,4,8,9,10,11-hexahydro-1H-pyrido[4′,3′:3,4]pyrazolo[1,5-a]azepine-2(7H)-carboxamide] | 1 |
| C[C@@H]1Cc2nn3c(c2CN1C(=O)Nc1ccnc(Br)c1F)C(F)(F)CCC(CO)C3 (single isomer, unassigned) [Example 81, (3R,8R*)—N-(2-Bromo-3-fluoropyridin-4-yl)-11,11-difluoro-8-(hydroxymethyl)-3-methyl-3,4,8,9,10,11-hexahydro-1H-pyrido[4′,3′:3,4]pyrazolo[1,5-a]azepine-2(7H)-carboxamide] | 2 |
| C[C@@H]1Cc2nn3c(c2CN1C(=O)Nc1ccnc(C(F)F)c1F)C(F)(F)CCC(CO)C3 (single isomer, unassigned) [Example 82, (3R,8R*)—N-(2-(Difluoromethyl)-3-fluoropyridin-4-yl)-11,11-difluoro-8-(hydroxymethyl)-3-methyl-3,4,8,9,10,11-hexahydro-1H-pyrido[4′,3′:3,4]pyrazolo[1,5-a]azepine-2(7H)-carboxamide] | 1 |

Same assay, conditions: Hepatitis B virus, HepG2.2.15, 144 h, 6 days, encapsidated HBV DNA in supernatant

| Compound | EC50 [nM] |
| --- | --- |
| CCC1(O)CCC(F)(F)c2c3c(nn2C1)CCN(C(=O)Nc1ccc(F)c(C#N)c1)C3 (single isomer, unassigned) [Example 61, (S*)—N-(3-Cyano-4-fluorophenyl)-8-ethyl-11,11-difluoro-8-hydroxy-3,4,8,9,10,11-hexahydro-1H-pyrido[4′,3′:3,4]pyrazolo[1,5-a]azepine-2(7H)-carboxamide] | 40 |
| C#CC1(O)CCC(F)(F)c2c3c(nn2C1)CCN(C(=O)Nc1ccnc(C(F)F)c1F)C3 (single isomer, unassigned) [Example 64, (R*)—N-(2-(Difluoromethyl)-3-fluoropyridin-4-yl)-8-ethynyl-11,11-difluoro-8-hydroxy-3,4,89,10,11-hexahydro-1H-pyrido[4′,3′:3,4]pyrazolo[1,5-a]azepine-2(7H)-carboxamide] | 143 |
| C[C@@H]1Cc2nn3c(c2CN1C(=O)Nc1ccc(F)c(C#N)c1)C(F)(F)CCC(CO)C3 (single isomer, unassigned) [Example 79, (3R,8R*)—N-(3-Cyano-4-fluorophenyl)-11,11-difluoro-8-(hydroxymethyl)-3-methyl-3,4,8,9,10,11-hexahydro-1H-pyrido[4′,3′:3,4]pyrazolo[1,5-a]azepine-2(7H)-carboxamide] | 1 |
